Tests used:
[1] = molar heat capacity at constant pressure; xn = mol fraction of the nth substance listed; settings: 101 kPa, Liquid
[2] = xn = mol fraction of the nth substance listed; settings: 101 kPa, Liquid

C[N+](=O)[O-] [nitromethane] + CCCC[n+]1cccc(C)c1.F[B-](F)(F)F
Settings	mass density, [2] [kg/m3]	molar heat capacity at constant pressure, [1] [J/K/mol]
293.15 K, x2 = 0	1140.2	106.6
293.15 K, x2 = 0.0517	1153.4	120.3
293.15 K, x2 = 0.1038	1161.5	134.2
293.15 K, x2 = 0.1952	1170.3	159.9
293.15 K, x2 = 0.3078	1176.7	–
293.15 K, x2 = 0.3563	1178.7	205.2
293.15 K, x2 = 0.3998	1180.1	217.4
293.15 K, x2 = 0.5121	1183	249.2
293.15 K, x2 = 0.5994	1184.6	273.7
293.15 K, x2 = 0.6856	1185.8	297.7
293.15 K, x2 = 0.7863	1186.9	326.4
293.15 K, x2 = 0.8842	1187.7	353.6
293.15 K, x2 = 0.9034	1187.9	359.1
293.15 K, x2 = 0.941	1188.2	369.8
298.15 K, x2 = 0	1133.4	106.9
298.15 K, x2 = 0.0517	1147.4	120.5
298.15 K, x2 = 0.1038	1156	134.7
298.15 K, x2 = 0.1952	1165.4	160.4
298.15 K, x2 = 0.3078	1172.2	–
298.15 K, x2 = 0.3563	1174.3	206
298.15 K, x2 = 0.3998	1175.9	218.3
298.15 K, x2 = 0.5121	1179	250.2
298.15 K, x2 = 0.5994	1180.7	274.8
298.15 K, x2 = 0.6856	1182.1	299
298.15 K, x2 = 0.7863	1183.3	327.8
298.15 K, x2 = 0.8842	1184.2	355.3
298.15 K, x2 = 0.9034	1184.4	360.8
298.15 K, x2 = 0.941	1184.8	371.6
303.15 K, x2 = 0	1126.6	107.3
303.15 K, x2 = 0.0517	1141.3	120.9
303.15 K, x2 = 0.1038	1150.5	135.2
303.15 K, x2 = 0.1952	1160.4	161
303.15 K, x2 = 0.3078	1167.8	–
303.15 K, x2 = 0.3563	1170	206.9
303.15 K, x2 = 0.3998	1171.6	219.3
303.15 K, x2 = 0.5121	1175	251.4
303.15 K, x2 = 0.5994	1176.9	276.2
303.15 K, x2 = 0.6856	1178.3	300.6
303.15 K, x2 = 0.7863	1179.7	329.6
303.15 K, x2 = 0.8842	1180.7	357.3
303.15 K, x2 = 0.9034	1180.9	362.9
303.15 K, x2 = 0.941	1181.3	373.7
308.15 K, x2 = 0	1119.7	107.7
308.15 K, x2 = 0.0517	1135.3	121.3
308.15 K, x2 = 0.1038	1144.9	135.7
308.15 K, x2 = 0.1952	1155.5	161.8
308.15 K, x2 = 0.3078	1163.3	–
308.15 K, x2 = 0.3563	1165.7	208
308.15 K, x2 = 0.3998	1167.4	220.5
308.15 K, x2 = 0.5121	1171	252.8
308.15 K, x2 = 0.5994	1173.1	277.9
308.15 K, x2 = 0.6856	1174.6	302.5
308.15 K, x2 = 0.7863	1176.1	331.7
308.15 K, x2 = 0.8842	1177.2	359.7
308.15 K, x2 = 0.9034	1177.4	365.3
308.15 K, x2 = 0.941	1177.9	376.2
313.15 K, x2 = 0	1112.9	108.2
313.15 K, x2 = 0.0517	1129.2	121.9
313.15 K, x2 = 0.1038	1139.4	136.4
313.15 K, x2 = 0.1952	1150.6	162.5
313.15 K, x2 = 0.3078	1158.8	–
313.15 K, x2 = 0.3563	1161.4	209.2
313.15 K, x2 = 0.3998	1163.2	221.9
313.15 K, x2 = 0.5121	1167	254.4
313.15 K, x2 = 0.5994	1169.2	279.8
313.15 K, x2 = 0.6856	1170.9	304.6
313.15 K, x2 = 0.7863	1172.5	334.1
313.15 K, x2 = 0.8842	1173.7	362.4
313.15 K, x2 = 0.9034	1174	368.1
313.15 K, x2 = 0.941	1174.4	379
318.15 K, x2 = 0	1106	108.6
318.15 K, x2 = 0.0517	1123.1	122.4
318.15 K, x2 = 0.1038	1133.9	137.1
318.15 K, x2 = 0.1952	1145.6	163.5
318.15 K, x2 = 0.3078	1154.4	–
318.15 K, x2 = 0.3563	1157.1	210.6
318.15 K, x2 = 0.3998	1159.1	223.5
318.15 K, x2 = 0.5121	1163.1	256.3
318.15 K, x2 = 0.5994	1165.4	281.9
318.15 K, x2 = 0.6856	1167.2	307
318.15 K, x2 = 0.7863	1169	336.8
318.15 K, x2 = 0.8842	1170.3	365.5
318.15 K, x2 = 0.9034	1170.5	371.1
318.15 K, x2 = 0.941	1171	382.3
